Source: US20040244713A1, “Method for treating animals or masses of water with compositions comprising quinone compounds” (priority 2003, published 2004)
Like-named read-outs stand apart in the source and are kept apart here.

Legend:
[1] = Hydrolysis test performed in darkness; format: physicochemical
[2] = Photodegradability in sunlight and UV light; format: physicochemical; settings: 10-ppm solution in drinking water (pH 6.5-7.5)
Method: In a fully similar manner, the same behaviour is confirmed if one assesses the photodegradability in sunlight and UV light (the radiation test was performed on a 10-ppm solution in drinking water (pH 6.5-7.5)

[3] = Feeding trial in rabbits in the fattening stage (growth, mortality); format: in vivo, New Zealand White rabbits; settings: in feed: Bacitracin zinc 1.5 ppm, MSB 250 ppm; for Final number of animals / Final average weight / Mortality %: end of fattening cycle (53 days after weaning); for Final number of animals: 200 animals initially; for Average daily growth: fattening cycle of 53 days after weaning
Method: The effect of a preparation comprising menadione sodium bisulfite coated with saturated vegetable fatty acids on rabbits in the fattening stage is evaluated.
Composition of the preparation (per Kg of final preparation):
MSB coated with hydrogenated vegetable fatty acids (1:1 inclusion ratio) 250 g;
This preparation is added in the quantity of 1 Kg per ton of feed, so that the final concentration of MSB is equal to 125 ppm/Kg of finished food. Since rabbits are fed with 120-150 grams of feed/day, the concentration of MSB is equal to an average daily dose of approximately 15-20 mg of MSB/animal per day.
New Zealand White animals, weaned at 32 days, were grown with the preparation cited above and compared with animals of the same race, fed with the same basic feed but treated with bacitracin zinc in a quantity equal to 150 mg/100 Kg of feed and with animals lacking any drug integration.

[4] = Biodegradability OECD 301 A (92/69/EEC C4-A); format: physicochemical
Text: The degradability of a substance is normally a factor that is impossible to predict on a structural basis. […] On the basis of the available data related to the compounds that are chemically more similar to the derivatives of menadione described here, one could have expected a degradability comprised between the 0% (percentage calculated on the initial mass of product expressed as mg/l) of menadione (2-methyl-1,4-naphthalenedione) and the 17% (assessed after 28 days) of menadione sodium bisulfite (where the calculation was performed by using the OECD301 A guidelines annexed to EEC directive 92/69/EEC C4-A).
Finally, biodegradability according to the 92/69/EEC C4-A regulation was also assessed.

[5] = OECD301 A guidelines, cited from earlier work
Artemia Salina = assay: Toxicity test LC50 on Artemia Salina; settings: in vivo
Text: (§9) The table below lists the results of the toxicity tests performed on fish fauna and on some phyto- and zooplankton species considered among the possible targets of the claimed method.

[6] = test system: Dreissena Polimorfa Larvae; assay: Toxicity test LC50 on Dreissena Polimorfa larvae; settings: for LC50 Dreissena Polimorfa Larvae: in vivo
Text: as §9

Isochris Galbana = assay: Toxicity test LC50 on Isochris Galbana; format: cell-based
Text: as §9

Eurytemora Affinis [7] = settings: in vivo
Text: as §9

[8] = Method: As noted repeatedly, the water solubility of the biocidal candidate is an essential requirement for advantageous use in biological water control. Accordingly, this property was evaluated for four of the compounds that are representative of the chemical classes to which the biocides currently in use belong.
[9] = test system: Pseudomonas putida NCIMB 1960; assay: MIC and MBC determination; format: cell-based; settings: 24 hours in darkness, tested range 0.12-64 mg/l
Method: (§1) Tested concentration range: 0.12-64 mg/l.

Corynebacterium sp. CT15 = assay: MIC and MBC determination; format: cell-based; settings: 24 hours in darkness, tested range 0.12-64 mg/l
Method: as §1

Bacillus subtilis = assay: MIC and MBC determination; format: cell-based; settings: Bacillus subtilis ATCC 25923; 24 hours in darkness; tested range 0.12-64 mg/l
Method: as §1

[10] = test system: Vibrio parahaemolyticus AD19; assay: MIC and MBC determination; format: cell-based; settings: 24 hours in darkness, tested range 0.12-64 mg/l
Method: as §1

Micrococcus sp. AD10 = assay: MIC and MBC determination; format: cell-based; settings: 24 hours in darkness, tested range 0.12-64 mg/l
Method: as §1

[11] = test system: Escherichia coli ATCC 25922; assay: MIC and MBC determination; format: cell-based; settings: 24 hours in darkness, tested range 0.12-64 mg/l
Method: as §1

[12] = test system: Pseudomonas aeruginosa ATCC 10145; assay: MIC and MBC determination; format: cell-based; settings: 24 hours in darkness, tested range 0.12-64 mg/l
Method: as §1

[13] = test system: Bacillus licheniformis NCIMB 1525; assay: MIC and MBC determination; format: cell-based; settings: 24 hours in darkness, tested range 0.12-64 mg/l
Method: as §1

Aeromonas sp. CH34 = assay: MIC and MBC determination; format: cell-based; settings: 24 hours in darkness, tested range 0.12-64 mg/l
Method: as §1

[14] = test system: Pseudomonas elongata NCIMB 1141; assay: MIC and MBC determination; format: cell-based; settings: 24 hours in darkness, tested range 0.12-64 mg/l
Method: as §1

[15] = test system: Staphylococcus aureus ATCC 25923; assay: MIC and MBC determination; format: cell-based; settings: 24 hours in darkness, tested range 0.12-64 mg/l
Method: as §1

Micrococcus sp. AE11 = assay: MIC and MBC determination; format: cell-based; settings: 24 hours in darkness, tested range 0.12-64 mg/l
Method: as §1

[16] = test system: Pseudomonas elongata NCIMB 1141; assay: Agar diffusion test (Kirby-Bauer); format: cell-based; settings: MNB (100 μg) per disk, 24 hours in darkness
Method: (§2) a) Kirby-Bauer test performed after 24 hours in darkness.
(§3) In this test, paper disks impregnated with known quantities of MNB are placed on the surface of agar disks injected at confluence with a standard suspension of a bacterial strain. The antibacterial agent diffuses on the plate, causing the formation of an area of inhibition of the growth of the bacterial strain around the disk with the inhibiting quantity of the agent. By virtue of a calibration curve it was possible to classify the isolates into susceptible, moderately resistant, and resistant.
(§4) The method being considered, therefore, assesses the effectiveness of a single quantity of agent ([…]) against two control strains of Gram-positive and Gram-negative aerobic bacteria (Gram-negative: Pseudomonas elongata NCIMB 1141; Gram-positive: Staphylococcus aureus ATCC 25923).
(§5) The results are given in the table and represent the size of the inhibition halos in millimetres after contact with 100 μg of MNB.

[17] = test system: Staphylococcus aureus ATCC 25923; assay: Agar diffusion test (Kirby-Bauer); format: cell-based; settings: MNB (100 μg) per disk, 24 hours in darkness
Method: as §2, §3, §4, §5

Rainbow trout = assay: Toxicity test LC50 on fish fauna, Rainbow trout; format: in vivo
Text: as §9

[18] = test system: Haemoncus contortus larvae (L3); assay: Faecal count of Haemoncus contortus larvae (L3); format: in vivo
Method: (§6) The effect of menadione nicotinamide bisulfite on Haemoncus contortus is assessed by measuring the motility of the larvae (L1), Table 2, and the faecal count of the larvae (L3), Table 2.1, according to the methodology described in Fetterer R. et Al. (1989) Vet. Parasitol. 32:181-189.

[19] = test system: Haemoncus contortus larvae (L1); assay: Motility of Haemoncus contortus larvae (L1); format: in vivo
Method: as §6

Vibrio sp. AD18 = settings: 24 hours in darkness, tested range 0.12-64 mg/l
Method: (§7) The MNB compound was tested in particular for its antibacterial activity on pathogenic and non-pathogenic organisms. The biocidal activity of MNB was estimated by using two separate methods: the agar diffusion test (Kirby-Bauer method) and the determination of the Minimum Inhibiting Concentration (MIC) and the Minimum Bactericidal Concentration (MBC).
(§8) b) Test for determining the MIC (minimum inhibiting concentration) and the MBC (minimum bactericidal concentration) of MNB with respect to pathogenic organisms after the colonies were kept in darkness for 24 hours. Tested concentration range: 0.12-64 mg/l. The tested strains were environmental isolates identified by means of an internal number or were standard strains identified by means of the ATCC or MNCIB filing number.

Vibrio sp. CH45 = settings: 24 hours in darkness, tested range 0.12-64 mg/l
Method: as §7, §8

Vibrio sp. AE7 = settings: 24 hours in darkness, tested range 0.12-64 mg/l
Method: as §7, §8

Eurytemora Affinis [20] = assay: Toxicity test LC50 on Eurytemora Affinis; settings: in vivo
Text: as §9

## O=C1C=CC(=O)c2c(O)cccc21 [Juglone, 5-hydroxy-1,4-naphthalenedione, reference compound]
[1]; PH 9, in darkness
  ½ LIFE, hydrolysis: 15 h
[2]
  Light exp. Total Degr.: 48 h

## CC1(S(=O)(=O)[O-])CC(=O)c2ccccc2C1=O.[Na+] (stereo not drawn) [MSB, menadione sodium bisulfite]
[3]
  Final number of animals: 191
  Final average weight: 2.84 kilograms
  Mortality %: 4.5%
  Average daily growth: 38.1 grams
[4]; after 7 days
  % biodegr. OECD 301 A: 5%
[4]; after 14 days
  % biodegr. OECD 301 A: 10%
[5]; assessed after 28 days, available/reported data
  degradability (percentage calculated on the initial mass of product expressed as mg/l): 17%

## Cc1ccc2c(c1)C(=O)c1ccccc1C2=O [2-methyl-anthraquinone]
Artemia Salina
  LC50 Artemia Salina: 5 ppm
[6]
  LC50 Dreissena Polimorfa Larvae: 200 ppm
Isochris Galbana
  LC50 Isochris Galbana: 0.5 ppm
Eurytemora Affinis [7]
  LC50 Eurytemora Affinis: 5 ppm

## CC1(S(=O)(=O)O)CC(=O)c2ccccc2C1=O.NC(=O)c1cccnc1 (stereo not drawn) [MNB, menadione nicotinamide bisulfite]
[1]; PH 6.8, in darkness
  ½ LIFE, hydrolysis: 48 h
[1]; PH 9, in darkness
  ½ LIFE, hydrolysis: <3 h
Artemia Salina
  LC50 Artemia Salina: 5 ppm
[4]
  degradability compared with that of MSB: as much as eight times higher
[4]; after 7 days
  % biodegr. OECD 301 A: 37%
[4]; after 14 days
  % biodegr. OECD 301 A: 37%
[4]; after 28 days
  % biodegr. OECD 301 A: 40%
[6]
  LC50 Dreissena Polimorfa Larvae: 1 ppm
[2]
  Light exp. Total Degr.: 48 h
  Light exp. ½ life: 10 h
[8]
  Sol. in H2O: 19 gr/l
[9]
  MBC: >64 µg/mL
  MIC: >64 µg/mL
Corynebacterium sp. CT15
  MBC: 16 µg/mL
  MIC: 8 µg/mL
Bacillus subtilis
  MBC: 32 µg/mL
  MIC: 12 µg/mL
[10]
  MBC: 4 µg/mL
  MIC: 1 µg/mL
Micrococcus sp. AD10
  MBC: 32 µg/mL
  MIC: 16 µg/mL
[11]
  MBC: >64 µg/mL
  MIC: >64 µg/mL
[12]
  MBC: >64 µg/mL
  MIC: >64 µg/mL
[13]
  MBC: 32 µg/mL
  MIC: 16 µg/mL
Aeromonas sp. CH34
  MBC: 64 µg/mL
  MIC: 32 µg/mL
[14]
  MBC: 16 µg/mL
  MIC: 8 µg/mL
[15]
  MBC: 16 µg/mL
  MIC: 8 µg/mL
Micrococcus sp. AE11
  MBC: 16 µg/mL
  MIC: 8 µg/mL
Isochris Galbana
  LC50 Isochris Galbana: 0.5 ppm
[16]
  size of the inhibition halos: 20 mm
[17]
  size of the inhibition halos: 20 mm
Rainbow trout
  LC50 Rainbow trout (assessed on 96 h): 0.4 ppm
[18]; 1 μg of MNB/ml
  Total no. of larvae (L3): 650
[18]; 10 μg of MNB/ml
  Total no. of larvae (L3): 310
[18]; 100 μg of MNB/ml
  Total no. of larvae (L3): 35
[19]; 1 μg of MNB/ml
  % of motile larvae (L1): 70%
[19]; 10 μg of MNB/ml
  % of motile larvae (L1): 43%
[19]; 100 μg of MNB/ml
  % of motile larvae (L1): 3%
Vibrio sp. AD18
  MBC: 32 µg/mL
  MIC: 16 µg/mL
Vibrio sp. CH45
  MBC: 16 µg/mL
  MIC: 16 µg/mL
Vibrio sp. AE7
  MBC: 32 to 64 µg/mL
  MIC: 16 to 32 µg/mL
Eurytemora Affinis [20]
  LC50 Eurytemora Affinis: 5 ppm

## CC1=CC(=O)c2ccccc2C1=O [Menadione, 2-methyl-1,4-naphthalenedione, reference compound]
[1]; PH 6.8, in darkness
  ½ LIFE, hydrolysis: 1500 h
[1]; PH 9, in darkness
  ½ LIFE, hydrolysis: 550 h
Artemia Salina
  LC50 Artemia Salina: 5 ppm
[5]; available data, time not stated
  degradability (percentage calculated on the initial mass of product expressed as mg/l): 0%
[6]; 500 ppm vs 0.2 ppm
  LC50 on Dreissena Polimorfa relative to 2-methyl-5-hydroxy-1,4-naphthalenedione: 2500 times
[6]
  LC50 Dreissena Polimorfa Larvae: 500 ppm
[2]
  Light exp. Total Degr.: >5000 h
  Light exp. ½ life: 1500 h
Isochris Galbana
  LC50 Isochris Galbana: 0.05 ppm
Rainbow trout
  LC50 Rainbow trout (assessed on 96 h): 0.1 ppm
Eurytemora Affinis [7]
  LC50 Eurytemora Affinis: 5 ppm

## bacitracin zinc [reference compound]
[3]
  Final number of animals: 185
  Final average weight: 2.77 kilograms
  Mortality %: 7.5%
  Average daily growth: 36.8 grams

## CC1=CC(=O)c2c(O)cccc2C1=O [2-methyl-5-hydroxy-1,4-naphthalenedione]
Artemia Salina
  LC50 Artemia Salina: 5 ppm
[6]
  LC50 Dreissena Polimorfa Larvae: 0.2 ppm
Isochris Galbana
  LC50 Isochris Galbana: 0.5 ppm
Eurytemora Affinis [20]
  LC50 Eurytemora Affinis: 5 ppm
